Test results reported in ChEMBL document CHEMBL1201861, “Genomics of Drug Sensitity in Cancer screening data, Wellcome Trust Sanger Institute”.

Experiments:
Test in all cases: cells
Format in all cases: functional, cell-based
Conditions in all cases: Homo sapiens
HDLM-2 = system: HDLM-2;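 also: cell viability assay measuring suppression of HDLM-2 proliferation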
Description: SANGER: Inhibition of human HDLM-2 cell growth in a cell viability assay.

NOS-1 = system: NOS-1;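 also: growth inhibition of the human NOS-1 cell line, read out with a cell viability assay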
Description: SANGER: Inhibition of human NOS-1 cell growth in a cell viability assay.

D-502MG = system: D-502MG
Description: SANGER: Inhibition of human D-502MG cell growth in a cell viability assay.

CTB-1 = system: CTB-1
Description: SANGER: Inhibition of human CTB-1 cell growth in a cell viability assay.

SBC-1 = system: SBC-1;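 also: cell viability assay measuring growth inhibition of the SBC-1 cell line, IC50 being the concentration that halves growth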
Description: SANGER: Inhibition of human SBC-1 cell growth in a cell viability assay.

EW-16 = system: EW-16;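 also: growth inhibition of human EW-16 cells, read out as cell viability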
Description: SANGER: Inhibition of human EW-16 cell growth in a cell viability assay.

CP66-MEL = system: CP66-MEL;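 also: growth inhibition of CP66-MEL cells determined in a cell viability assay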
Description: SANGER: Inhibition of human CP66-MEL cell growth in a cell viability assay.

COLO-684 = system: COLO-684
Description: SANGER: Inhibition of human COLO-684 cell growth in a cell viability assay.

NEC8 = system: NEC8;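 also: growth inhibition of human NEC8 cells, read out by a cell viability assay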
Description: SANGER: Inhibition of human NEC8 cell growth in a cell viability assay.

JVM-2 = system: JVM-2;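 also: growth inhibition of JVM-2 cells determined by a cell viability assay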
Description: SANGER: Inhibition of human JVM-2 cell growth in a cell viability assay.

GOTO = system: GOTO;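 also: growth inhibition of GOTO cells, read out by a cell viability assay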
Description: SANGER: Inhibition of human GOTO cell growth in a cell viability assay.

MEG-01 = system: MEG-01;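 also: growth inhibition of MEG-01 cells, read out by a cell viability assay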
Description: SANGER: Inhibition of human MEG-01 cell growth in a cell viability assay.

NCI-H1155 = system: NCI-H1155;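 also: cell growth inhibition measured by a viability assay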
Description: SANGER: Inhibition of human NCI-H1155 cell growth in a cell viability assay.

LS-513 = system: LS-513
Description: SANGER: Inhibition of human LS-513 cell growth in a cell viability assay.

TE-12 = system: TE-12;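 also: growth inhibition of TE-12 cells, read out by a cell viability assay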
Description: SANGER: Inhibition of human TE-12 cell growth in a cell viability assay.

MZ1-PC = system: MZ1-PC;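 also: cell viability assay measuring growth inhibition of human MZ1-PC cells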
Description: SANGER: Inhibition of human MZ1-PC cell growth in a cell viability assay.

NCI-H1581 = system: NCI-H1581;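 also: cell growth inhibition read out by a viability assay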
Description: SANGER: Inhibition of human NCI-H1581 cell growth in a cell viability assay.

KP-N-YS = system: KP-N-YS;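 also: cell viability assay measuring inhibition of cell line growth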
Description: SANGER: Inhibition of human KP-N-YS cell growth in a cell viability assay.

RH-1 = system: RH-1;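 also: growth inhibition of human RH-1 cells, read out with a cell viability assay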
Description: SANGER: Inhibition of human RH-1 cell growth in a cell viability assay.

HCC1187 = system: HCC1187;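 also: growth inhibition of HCC1187 cells, read out with a cell viability assay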
Description: SANGER: Inhibition of human HCC1187 cell growth in a cell viability assay.

NMC-G1 = system: NMC-G1;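 also: growth inhibition of the NMC-G1 cell line, measured with a cell viability read-out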
Description: SANGER: Inhibition of human NMC-G1 cell growth in a cell viability assay.

DEL = system: DEL;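 also: growth inhibition of the human DEL cell line, read out with a cell viability assay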
Description: SANGER: Inhibition of human DEL cell growth in a cell viability assay.

KARPAS-45 = system: KARPAS-45;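 also: inhibition of cell line growth, read out through a viability assay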
Description: SANGER: Inhibition of human KARPAS-45 cell growth in a cell viability assay.

HT-144 = system: HT-144
Description: SANGER: Inhibition of human HT-144 cell growth in a cell viability assay.

NTERA-2-cl-D1 = system: NTERA-2-cl-D1;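 also: inhibition of cell growth, measured with a cell viability assay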
Description: SANGER: Inhibition of human NTERA-S-cl-D1 cell growth in a cell viability assay.

HD-MY-Z = system: HD-MY-Z;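 also: growth inhibition of HD-MY-Z cells, read out with a cell viability assay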
Description: SANGER: Inhibition of human HD-MY-Z cell growth in a cell viability assay.

LAMA-84 = system: LAMA-84;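 also: growth inhibition of LAMA-84 cells, read out with a cell viability assay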
Description: SANGER: Inhibition of human LAMA-84 cell growth in a cell viability assay.

SW 962 = system: SW 962;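 also: growth inhibition of human SW962 cells, read out by a cell viability assay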
Description: SANGER: Inhibition of human SW962 cell growth in a cell viability assay.

KE-37 = system: KE-37;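 also: growth inhibition of KE-37 cells, read out with a cell viability assay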
Description: SANGER: Inhibition of human KE-37 cell growth in a cell viability assay.

Mo = system: Mo
Description: SANGER: Inhibition of human Mo-T cell growth in a cell viability assay.

BE-13 = system: BE-13;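 also: growth inhibition of human BE-13 cells, measured with a cell viability assay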
Description: SANGER: Inhibition of human BE-13 cell growth in a cell viability assay.

RS4-11 = system: RS4-11;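 also: growth inhibition of RS4-11 cells, read out by a cell viability assay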
Description: SANGER: Inhibition of human RS4-11 cell growth in a cell viability assay.

EW-18 = system: EW-18;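 also: growth inhibition of EW-18 cells, read out by a cell viability assay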
Description: SANGER: Inhibition of human EW-18 cell growth in a cell viability assay.

KNS-42 = system: KNS-42;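 also: growth inhibition of KNS-42 cells, read out with a cell viability assay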
Description: SANGER: Inhibition of human KNS-42 cell growth in a cell viability assay.

IST-SL1 = system: IST-SL1;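 also: growth inhibition of human IST-SL1 cells, read out with a cell viability assay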
Description: SANGER: Inhibition of human IST-SL1 cell growth in a cell viability assay.

D283 Med = system: D283 Med
Description: SANGER: Inhibition of human D-283MED cell growth in a cell viability assay.

CGTH-W-1 = system: CGTH-W-1;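 also: growth inhibition of human CGTH-W-1 cells measured by cell viability assay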
Description: SANGER: Inhibition of human CGTH-W-1 cell growth in a cell viability assay.

DJM-1 = system: DJM-1;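 also: growth inhibition of human DJM-1 cells, read out by a cell viability assay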
Description: SANGER: Inhibition of human DJM-1 cell growth in a cell viability assay.

GCIY = system: GCIY;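 also: growth inhibition of the human GCIY cell line, read out by a cell viability assay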
Description: SANGER: Inhibition of human GCIY cell growth in a cell viability assay.

RPMI-8226 = system: RPMI-8226
Description: SANGER: Inhibition of human RPMI-8226 cell growth in a cell viability assay.

SW872 = system: SW872;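 also: growth inhibition of SW872 cells, read out by a viability assay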
Description: SANGER: Inhibition of human SW872 cell growth in a cell viability assay.

EOL1 = system: EOL1;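 also: growth inhibition of EoL-1 cells, read out by a cell viability assay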
Description: SANGER: Inhibition of human EoL-1-cell cell growth in a cell viability assay.

OMC-1 = system: OMC-1;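 also: growth inhibition of the OMC-1 cell line, measured by a cell viability assay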
Description: SANGER: Inhibition of human OMC-1 cell growth in a cell viability assay.

MZ2-MEL = system: MZ2-MEL;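 also: growth inhibition of MZ2-MEL cells read out with a cell viability assay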
Description: SANGER: Inhibition of human MZ2-MEL cell growth in a cell viability assay.

DB = system: DB
Description: SANGER: Inhibition of human DB cell growth in a cell viability assay.

SW684 = system: SW684;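 also: growth inhibition of human SW684 cells, measured by a cell viability assay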
Description: SANGER: Inhibition of human SW684 cell growth in a cell viability assay.

Calu-6 = system: Calu-6;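 also: growth of human Calu-6 cells, read out by a cell viability assay, IC50 marking inhibition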
Description: SANGER: Inhibition of human Calu-6 cell growth in a cell viability assay.

NCI-H209 = system: NCI-H209;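 also: growth inhibition of human NCI-H209 cells, measured by a cell viability assay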
Description: SANGER: Inhibition of human NCI-H209 cell growth in a cell viability assay.

EW-24 = system: EW-24;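 also: human EW-24 cancer cell line, growth inhibition read out via a cell viability assay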
Description: SANGER: Inhibition of human EW-24 cell growth in a cell viability assay.

TE-8 = system: TE-8;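 also: growth inhibition of TE-8 cells, measured with a cell viability readout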
Description: SANGER: Inhibition of human TE-8 cell growth in a cell viability assay.

CW-2 = system: CW-2;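 also: growth inhibition of CW-2 cells, read out by a cell viability assay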
Description: SANGER: Inhibition of human CW-2 cell growth in a cell viability assay.

NOMO-1 = system: NOMO-1;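 also: growth inhibition of human NOMO-1 cells measured by a cell viability assay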
Description: SANGER: Inhibition of human NOMO-1 cell growth in a cell viability assay.

MC116 = system: MC116;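 also: growth inhibition of MC116 cells, read out with a cell viability assay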
Description: SANGER: Inhibition of human MC116 cell growth in a cell viability assay.

MFM-223 = system: MFM-223
Description: SANGER: Inhibition of human MFM-223 cell growth in a cell viability assay.

EW-1 = system: EW-1;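 also: growth inhibition of the human EW-1 cell line, read out by a cell viability assay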
Description: SANGER: Inhibition of human EW-1 cell growth in a cell viability assay.

HC-1 = system: HC-1;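 also: growth inhibition of HC-1 cells measured by a cell viability assay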
Description: SANGER: Inhibition of human HC-1 cell growth in a cell viability assay.

MZ7-mel = system: MZ7-mel;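 also: growth inhibition of human MZ7-mel cells, measured by a cell viability assay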
Description: SANGER: Inhibition of human MZ7-mel cell growth in a cell viability assay.

SK-N-DZ = system: SK-N-DZ;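 also: growth inhibition of the cancer cell line, read out through a viability assay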
Description: SANGER: Inhibition of human SK-N-DZ cell growth in a cell viability assay.

ES5 = system: ES5;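 also: growth inhibition of human ES5 cells, read out by a cell viability assay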
Description: SANGER: Inhibition of human ES5 cell growth in a cell viability assay.

SK-LMS-1 = system: SK-LMS-1;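 also: growth inhibition of human SK-LMS-1 cells, read out with a cell viability assay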
Description: SANGER: Inhibition of human SK-LMS-1 cell growth in a cell viability assay.

LC-2-ad = system: LC-2-ad
Description: SANGER: Inhibition of human LC-2-ad cell growth in a cell viability assay.

ES7 = system: ES7
Description: SANGER: Inhibition of human ES7 cell growth in a cell viability assay.

RKO = system: RKO
Description: SANGER: Inhibition of human RKO cell growth in a cell viability assay.

BB49-HNC = system: BB49-HNC
Description: SANGER: Inhibition of human BB49-HNC cell growth in a cell viability assay.

CTV-1 = system: CTV-1
Description: SANGER: Inhibition of human CTV-1 cell growth in a cell viability assay.

Question: `CCn1c(-c2nonc2N)nc2cnc(Oc3cccc(NC(=O)c4ccc(OCCN5CCOCC5)cc4)c3)cc21` [GSK-269962A] was tested. Which IC50 (HDLM-2) did it give?
Answer: The IC50 was over 2500 nM.

Question: What about the IC50 (NOS-1) of the same compound?
Answer: The IC50 was over 2500 nM.

Question: And the IC50 (D-502MG)?
Answer: The IC50 was over 2500 nM.

Question: What about the IC50 (CTB-1) of the same compound?
Answer: The IC50 was over 2500 nM.

Question: What about the IC50 (SBC-1) of the same compound?
Answer: Its IC50 is over 2500 nM.

Question: What about the IC50 (EW-16) of the same compound?
Answer: Its IC50 is over 2500 nM.

Question: And the IC50 (CP66-MEL)?
Answer: The IC50 was over 2500 nM.

Question: And the IC50 (COLO-684)?
Answer: The IC50 was over 2500 nM.

Question: And the IC50 (NEC8)?
Answer: Its IC50 is over 2500 nM.

Question: And the IC50 (JVM-2)?
Answer: The IC50 was over 2500 nM.

Question: And the IC50 (GOTO)?
Answer: The IC50 was over 2500 nM.

Question: What about the IC50 (MEG-01) of the same compound?
Answer: Its IC50 is over 2500 nM.

Question: What about the IC50 (NCI-H1155) of the same compound?
Answer: Its IC50 is over 2500 nM.

Question: And the IC50 (LS-513)?
Answer: The IC50 was over 2500 nM.

Question: And the IC50 (TE-12)?
Answer: The IC50 was over 2500 nM.

Question: What about the IC50 (MZ1-PC) of the same compound?
Answer: Its IC50 is over 2500 nM.

Question: And the IC50 (NCI-H1581)?
Answer: Its IC50 is over 2500 nM.

Question: And the IC50 (KP-N-YS)?
Answer: Its IC50 is over 2500 nM.

Question: What about the IC50 (RH-1) of the same compound?
Answer: The IC50 was over 2500 nM.

Question: And the IC50 (HCC1187)?
Answer: The IC50 was over 2500 nM.

Question: What about the IC50 (NMC-G1) of the same compound?
Answer: Its IC50 is over 2500 nM.

Question: And the IC50 (DEL)?
Answer: Its IC50 is over 2500 nM.

Question: And the IC50 (KARPAS-45)?
Answer: Its IC50 is over 2500 nM.

Question: What about the IC50 (HT-144) of the same compound?
Answer: Its IC50 is over 2500 nM.

Question: And the IC50 (NTERA-2-cl-D1)?
Answer: Its IC50 is over 2500 nM.

Question: What about the IC50 (HD-MY-Z) of the same compound?
Answer: Its IC50 is over 2500 nM.

Question: And the IC50 (LAMA-84)?
Answer: Its IC50 is over 2500 nM.

Question: What about the IC50 (SW 962) of the same compound?
Answer: The IC50 was over 2500 nM.

Question: And the IC50 (KE-37)?
Answer: Its IC50 is over 2500 nM.

Question: What about the IC50 (Mo) of the same compound?
Answer: Its IC50 is over 2500 nM.

Question: What about the IC50 (BE-13) of the same compound?
Answer: Its IC50 is 141 nM.

Question: And the IC50 (RS4-11)?
Answer: Its IC50 is over 2500 nM.

Question: What about the IC50 (EW-18) of the same compound?
Answer: Its IC50 is over 2500 nM.

Question: What about the IC50 (KNS-42) of the same compound?
Answer: Its IC50 is over 2500 nM.

Question: What about the IC50 (IST-SL1) of the same compound?
Answer: Its IC50 is 2170 nM.

Question: What about the IC50 (D283 Med) of the same compound?
Answer: Its IC50 is over 2500 nM.

Question: And the IC50 (CGTH-W-1)?
Answer: Its IC50 is over 2500 nM.

Question: What about the IC50 (DJM-1) of the same compound?
Answer: Its IC50 is over 2500 nM.

Question: And the IC50 (GCIY)?
Answer: Its IC50 is over 2500 nM.

Question: What about the IC50 (RPMI-8226) of the same compound?
Answer: The IC50 was over 2500 nM.

Question: What about the IC50 (SW872) of the same compound?
Answer: Its IC50 is 887 nM.

Question: And the IC50 (EOL1)?
Answer: The IC50 was over 2500 nM.

Question: And the IC50 (OMC-1)?
Answer: The IC50 was over 2500 nM.

Question: What about the IC50 (MZ2-MEL) of the same compound?
Answer: Its IC50 is over 2500 nM.

Question: And the IC50 (DB)?
Answer: Its IC50 is over 2500 nM.

Question: And the IC50 (SW684)?
Answer: Its IC50 is over 2500 nM.

Question: And the IC50 (Calu-6)?
Answer: The IC50 was over 2500 nM.

Question: And the IC50 (NCI-H209)?
Answer: The IC50 was over 2500 nM.

Question: What about the IC50 (EW-24) of the same compound?
Answer: Its IC50 is over 2500 nM.

Question: What about the IC50 (TE-8) of the same compound?
Answer: The IC50 was over 2500 nM.

Question: What about the IC50 (CW-2) of the same compound?
Answer: The IC50 was over 2500 nM.

Question: What about the IC50 (NOMO-1) of the same compound?
Answer: The IC50 was over 2500 nM.

Question: What about the IC50 (MC116) of the same compound?
Answer: Its IC50 is over 2500 nM.

Question: And the IC50 (MFM-223)?
Answer: The IC50 was over 2500 nM.

Question: What about the IC50 (EW-1) of the same compound?
Answer: Its IC50 is over 2500 nM.

Question: And the IC50 (HC-1)?
Answer: Its IC50 is over 2500 nM.

Question: What about the IC50 (MZ7-mel) of the same compound?
Answer: Its IC50 is over 2500 nM.

Question: What about the IC50 (SK-N-DZ) of the same compound?
Answer: Its IC50 is over 2500 nM.

Question: What about the IC50 (ES5) of the same compound?
Answer: Its IC50 is over 2500 nM.

Question: And the IC50 (SK-LMS-1)?
Answer: Its IC50 is over 2500 nM.

Question: And the IC50 (LC-2-ad)?
Answer: The IC50 was over 2500 nM.

Question: And the IC50 (ES7)?
Answer: The IC50 was over 2500 nM.

Question: And the IC50 (RKO)?
Answer: The IC50 was over 2500 nM.

Question: What about the IC50 (BB49-HNC) of the same compound?
Answer: Its IC50 is 7.89 nM.

Question: And the IC50 (CTV-1)?
Answer: The IC50 was over 2500 nM.

Question: Which results are given for `Cc1ccc(NC(=O)c2cccc(C(C)(C)C#N)c2)cc1Nc1ccc2ncn(C)c(=O)c2c1`?
Answer: IC50 (HDLM-2): > 4000 nM; IC50 (NOS-1): 92.7 nM; IC50 (D-502MG): 2260 nM; IC50 (CTB-1): > 4000 nM; IC50 (SBC-1): > 4000 nM; IC50 (EW-16): > 4000 nM; IC50 (CP66-MEL): 132 nM; IC50 (COLO-684): > 4000 nM; IC50 (NEC8): > 4000 nM; IC50 (JVM-2): > 4000 nM; IC50 (GOTO): > 4000 nM; IC50 (MEG-01): 376 nM; IC50 (NCI-H1155): > 4000 nM; IC50 (LS-513): 74.1 nM; IC50 (TE-12): 1310 nM; IC50 (MZ1-PC): 280 nM; IC50 (NCI-H1581): > 4000 nM; IC50 (KP-N-YS): > 4000 nM; IC50 (RH-1): > 4000 nM; IC50 (HCC1187): > 4000 nM; IC50 (NMC-G1): > 4000 nM; IC50 (DEL): > 4000 nM; IC50 (KARPAS-45): > 4000 nM; IC50 (HT-144): 6.61 nM; IC50 (NTERA-2-cl-D1): > 4000 nM; IC50 (HD-MY-Z): 2940 nM; IC50 (LAMA-84): 192 nM; IC50 (SW 962): > 4000 nM; IC50 (KE-37): > 4000 nM; IC50 (Mo): > 4000 nM; IC50 (BE-13): 806 nM; IC50 (RS4-11): > 4000 nM; IC50 (EW-18): > 4000 nM; IC50 (KNS-42): > 4000 nM; IC50 (IST-SL1): > 4000 nM; IC50 (D283 Med): > 4000 nM; IC50 (CGTH-W-1): 121 nM; IC50 (DJM-1): > 4000 nM; IC50 (GCIY): > 4000 nM; IC50 (RPMI-8226): 2470 nM; IC50 (SW872): 96.5 nM; IC50 (EOL1): > 4000 nM; IC50 (OMC-1): > 4000 nM; IC50 (MZ2-MEL): 794 nM; IC50 (DB): > 4000 nM; IC50 (SW684): > 4000 nM; IC50 (Calu-6): 51.5 nM; IC50 (NCI-H209): > 4000 nM; IC50 (EW-24): 2710 nM; IC50 (TE-8): > 4000 nM; IC50 (CW-2): > 4000 nM; IC50 (NOMO-1): 1210 nM; IC50 (MC116): > 4000 nM; IC50 (MFM-223): > 4000 nM; IC50 (EW-1): > 4000 nM; IC50 (HC-1): > 4000 nM; IC50 (MZ7-mel): 117 nM; IC50 (SK-N-DZ): > 4000 nM; IC50 (ES5): > 4000 nM; IC50 (SK-LMS-1): > 4000 nM; IC50 (LC-2-ad): > 4000 nM; IC50 (ES7): > 4000 nM; IC50 (RKO): 37.7 nM; IC50 (BB49-HNC): 352 nM; IC50 (CTV-1): 1200 nM
